System: PBMC from 32 patients with chronic HCV
Assay: T cell proliferation assay ((3H)-thymidine incorporation, stimulation index) with PBMC of chronic HCV patients
Assay type: cell-based, human
Conditions: for number of patients that recognized the single peptide: 8 proliferative responders to pools 2 and/or 3 among 11 interferon-responder HCV patients; for LPR in αIFN responders (summary of Table 7): both αIFN responders tested; for lymphoproliferative response (LPR) to peptide pools and single peptides: IFN responder, LPR to pools 2 and/or 3
[1] = patient 615, pools 2 assays, single peptides 1 assay
[2] = patient 618, pools 4 assays, single peptides 1 assay
[3] = patient 620, αIFN non-responder (NR), week 20 of αIFN therapy
[4] = patient 621, pools 4 assays, single peptides 1 assay
[5] = patient 626, pools 9 assays, single peptides 5 assays
[6] = patient 626, αIFN responder (R), week 14 of αIFN therapy
[7] = patient 627, αIFN non-responder (NR), week 54 of αIFN therapy
[8] = patient 632, pools 8 assays, single peptides 4 assays
[9] = patient 634, pools 2 assays, single peptides 1 assay
[10] = patient 636, αIFN responder (R), week 28 of αIFN therapy
[11] = patient 637, αIFN non-responder (NR), week 45 of αIFN therapy
[12] = patient 639, pools 4 assays, single peptides 2 assays

Row | Substance | number of patients that recognized the single peptide | LPR in αIFN responders (summary of Table 7) | lymphoproliferative response (LPR) to peptide pools and single peptides [1] | lymphoproliferative response (LPR) to peptide pools and single peptides [2] | stimulation index (SI), T-cell recognition [3] | lymphoproliferative response (LPR) to peptide pools and single peptides [4] | lymphoproliferative response (LPR) to peptide pools and single peptides [5] | stimulation index (SI), T-cell recognition [6] | stimulation index (SI), T-cell recognition [7] | lymphoproliferative response (LPR) to peptide pools and single peptides [8] | lymphoproliferative response (LPR) to peptide pools and single peptides [9] | stimulation index (SI), T-cell recognition [10] | stimulation index (SI), T-cell recognition [11] | lymphoproliferative response (LPR) to peptide pools and single peptides [12] | lymphoproliferative response (LPR) to peptide pools and single peptides (patient 604, pools 2 assays, single peptides 1 assay) | LPR in αIFN non-responders (summary of Table 7) (two αIFN non-responders)
1 | VLEDGVNYATGNLPGCSFSI (hepatitis C virus) [C27] | 6 | highest LPR | + (significant when it induces SI's 3 in at least half of the assays performed) | + (significant when it induces SI's 3 in at least half of the assays performed) | — (Only SI equal or greater than 3 are shown.) | + (significant when it induces SI's 3 in at least half of the assays performed) | + (significant when it induces SI's 3 in at least half of the assays performed) | 8.2 | — (Only SI equal or greater than 3 are shown.) | + (significant when it induces SI's 3 in at least half of the assays performed) | + (significant when it induces SI's 3 in at least half of the assays performed) | 5.8 | — (Only SI equal or greater than 3 are shown.) | + (significant when it induces SI's 3 in at least half of the assays performed) |  | 
2 | LYGNEGCGWAGWLLSPRGSR (hepatitis C virus) [C15] |  |  |  |  |  |  |  | — (Only SI equal or greater than 3 are shown.) | — (Only SI equal or greater than 3 are shown.) |  |  | — (Only SI equal or greater than 3 are shown.) | — (Only SI equal or greater than 3 are shown.) |  |  | 
3 | GRTWAQPGYPWPLYGNEGCG (hepatitis C virus) [C13] |  | highest LPR |  |  |  |  |  | 4.4 | — (Only SI equal or greater than 3 are shown.) |  |  | 6.3 | — (Only SI equal or greater than 3 are shown.) |  |  | 
4 | GGAARALAHGVRVLEDGVNY (hepatitis C virus) [C25] | 5 | highest LPR |  | + (significant when it induces SI's 3 in at least half of the assays performed) | — (Only SI equal or greater than 3 are shown.) | + (significant when it induces SI's 3 in at least half of the assays performed) | + (significant when it induces SI's 3 in at least half of the assays performed) | 6 | — (Only SI equal or greater than 3 are shown.) | + (significant when it induces SI's 3 in at least half of the assays performed) |  | 9.7 | — (Only SI equal or greater than 3 are shown.) | + (significant when it induces SI's 3 in at least half of the assays performed) |  | 
5 | PTDPRRRSRNLGKVIDTLTC (hepatitis C virus) [C19] | 3 | highest LPR |  |  |  |  |  | — (Only SI equal or greater than 3 are shown.) | — (Only SI equal or greater than 3 are shown.) | + (significant when it induces SI's 3 in at least half of the assays performed) | + (significant when it induces SI's 3 in at least half of the assays performed) | 7.1 | — (Only SI equal or greater than 3 are shown.) | + (significant when it induces SI's 3 in at least half of the assays performed) |  | 
6 | Tetanus toxoid [TT, reference compound] |  |  |  |  | 4.1 |  |  | 14.5 | 19.1 |  |  | 3.6 | 4.2 |  |  | 
7 | LMGYIPLVGAPLGGAARALA (hepatitis C virus) [C23] | 3 |  | + (significant when it induces SI's 3 in at least half of the assays performed) |  | 4.1 |  |  | — (Only SI equal or greater than 3 are shown.) | — (Only SI equal or greater than 3 are shown.) | + (significant when it induces SI's 3 in at least half of the assays performed) |  | — (Only SI equal or greater than 3 are shown.) | — (Only SI equal or greater than 3 are shown.) |  | + (significant when it induces SI's 3 in at least half of the assays performed) | high PLR
8 | LPGCSFSIFLLALLSCLTVP [C29] |  |  |  |  | — (Only SI equal or greater than 3 are shown.) |  |  | — (Only SI equal or greater than 3 are shown.) | — (Only SI equal or greater than 3 are shown.) |  |  | — (Only SI equal or greater than 3 are shown.) | — (Only SI equal or greater than 3 are shown.) |  |  | 

— patent publication US6555114B1, “Immunodominant human T-cell epitopes of hepatitis C virus” (Innogenetics N.V., priority 1993, dated 2003)
